Experimental data published in article PMC7732531 (Frontiers in Pharmacology, 2020).
Like-named read-outs stand apart in the source and are kept apart here.

Legend:
[1] = rat, microsomes, 0 h, 1 μM, pH 7.4
[2] = Brain distribution under steady state (Kp,uu); format: in vivo, rat
[3] = in vitro; settings: human, Caco-2
Description: (§1) Caco-2 cell lines were cultured (ATCC, Manassas, VA, United States) as described previously ([Liu et al., 2014]). Briefly, the cells were cultured at 37°C in 5% CO2 at 90% humidity in DMEM high glucose medium containing 20% fetal bovine serum, 1% nonessential amino acids, 100 U/ml penicillin and 1% streptomycin. For the efflux studies, the cells were seeded onto polyethylene terephthalate Millicell® cell culture inserts (0.4 μm pore size, 6.5 mm diameter, Millipore Corporation, Billerica, MA, United States) at a density of 1.7 × 10^5 cells/ml. The culture medium was refreshed on the day after seeding, after which it was refreshed every other day and on the day before the transport experiment. The cells were cultured for 20–22 days after seeding and then evaluated by measuring the transepithelial electrical resistance (TEER) (Millicell ERS®, Millipore Corporation) before experiments. […] Transepithelial permeability studies for YL-IPA08 (10 μM) were conducted from apical to basolateral side (A-B) and basolateral to apical side (B-A) for 120 min 0.2% BSA was included in the receiver solution to avoid nonspecific binding. At 60, 90, and 120 min, half volume of solution from receiver side was withdrawn, and same volume of HBSS was immediately added. Obtained samples were precipitated by adding 4× volumes of acetonitrile containing IS and centrifuged. The supernatants were stored in −20°C until further analysis by LC-MS/MS.
(§2) The in vitro t1/2 in liver microsomal incubation was calculated from the semi-log plot of percentage remaining vs. incubation time and intrinsic clearance (Clint, ml/min/mg protein) was calculated as Eq. 1: CLint=0.693/in vitro t1/2×volume of incubation (μl)/amount of microsomal protein in incubation (mg) (1) ([Suzuki et al., 2003]).Apparent permeability was obtained according to the equation Papp = (dQ/dt)/(A × C0), where dQ/dt is the mass transport rate (determined from the slope of the amount transported vs. time plot), A is the surface area of the monolayer, and C0 is the initial concentration of YL-IPA08 in the donor chamber ([Suzuki et al., 2003]). The efflux ratio was calculated for each study using the following equation: […] = Papp(B–A)/Papp(A–B), where Papp(B–A) and Papp(A–B) represent apparent drug permeability in the B to A and A to B direction, respectively. An efflux ratio greater than 2 indicates net efflux.

[4] = test system: Caco-2 cells; test: in vitro
Description: as §1, §2

[5] = in vivo; settings: male, rat, po, 1 mg/kg
Description: (§3) The surgical procedure for portal vein catheter insertion was performed according to reference ([Matsuda et al., 2012]). Male SD rats (250–280 g) were purchased from Beijing Vital River Laboratory Animal Technology Co., Ltd. (Beijing, China). Rats were anesthetized with 2% pentobarbital sodium (0.2–0.3 mg/100 g) intraperitoneally dosed. Cannulation into the jugular vein was performed by the method of Murakami reported ([Murakami et al., 2003]) with minor modification. Briefly, an incision of ∼0.5 cm near right clavicle was made and the jugular vein was exposed. Next, this vein was cannulated with ∼12.5 cm of silicone gel tubing (0.6 mm I.D. × 0.9 mm O.D., Skillsmodel Inc., Beijing, China). The other side of the tubing was passed through the back skin. 2.5 cm midline incision was made in the abdominal cavity close to ensiform process and the portal vein was detached. To prevent bleeding, the portal vein was ligated temporarily as the catheter was inserted. The silicone tubing (22 cm, 0.6 mm I.D. × 0.9 mm O.D., Skillsmodel Inc., Beijing, China) was inserted immediately and fixed by a purse-string suture on the portal vein. The time to reperfusion was about 1 min after intercepted blood flow. In addition, a catheter with trumpet-shaped opening was used to prevent the catheter from slipping out of the vessel and minimize the effect on blood flow. Another end of the catheter was passed subcutaneously to the skin close to the scapula.
(§4) Blood samples were collected at 0, 0.083, 0.25, 0.5, 1, 2, 4, 6, 8 and 12 h. Blood (approximately 100 µl) was collected from the jugular and portal veins into tubes containing heparin on ice and centrifuged within 1 h of collection. Plasma was harvested and stored at −20°C for bioanalysis.
(§5) FaFg was calculated using mass balance method and rat portal blood flow (Qpv) of 32 ml/min/kg, where Rb/p is used to convert plasma concentrations to blood concentrations.

[6] = in vitro; settings: human, microsomes, pH 7.4
[7] = Aqueous solubility / BCS class; format: physicochemical
[8] = Blood/plasma partitional ratio, rat blood; format: in vitro ADME; settings: fresh pooled whole blood with heparin, rat whole blood, 37°C, read-out: blood/plasma partitioning (R b/P)
Description: The blood/plasma partitional ratio (R b/p) in rat and human blood was measured in vitro using fresh pooled blood including heparin. Whole blood was preincubated at 37°C in a water bath, and spiked with YL-IPA08 at 1 µM. The blood samples were incubated at 37°C for 1 h. After incubation, aliquots of 25 µl spiked whole blood were removed, and the remaining blood was centrifuged at 2,000 × g for 10 min, after which 25 µl aliquots of plasma were removed. Obtained blood and plasma samples were spiked with same volume of blank plasma or blood, respectively, and then immediately precipitated by adding 4× volumes of acetonitrile containing IS to get the same matrix. The concentrations of YL-IPA08 in blood and plasma were determined by LC-MS/MS.

[9] = in vitro; format: in vitro ADME; settings: human, microsomes
Description: The fraction of unbound YL-IPA08 in plasma and liver microsomes of rat and human, and brain homogenates of rat were determined utilizing Rapid Equilibrium Dialysis method ([Waters et al., 2008]). Rat brain homogenate was harvested in 4-fold volume (w/v) of PBS (pH 7.4). YL-IPA08 were spiked into fresh plasma, rat brain homogenate, liver microsomes (0.2 mg/ml protein) at concentration of 1 µM, and then dialyzed against biomatrices on a shaker at 37°C for 4 h. To avoid the high non-specific binding of YL-IPA08, 0.01% Tween 80 was added in the incubation mixture. At the end of the incubation, protein was precipitated with acetonitrile (containing IS) and analyzed by LC-MS/MS. Phenacetin, quinidine, and warfarin were selected as positive control for the protein binding test.
The unbound fraction of YL-IPA08 in plasma or liver microsomes (ƒu,x) was calculated as shown in Eq. 2, and unbound fraction in the tissue homogenate (ƒu,b) was calculated according to Eq. 3. fu,x = Concbuffer chamber/Concplasma/liver microsomes chamber (2) fu,b = Concbuffer chamber/Concbrain homogenate chamber (3) The measured unbound fractions would be higher when a tissue is homogenized and diluted in buffer, the unbound fractions in an undiluted tissues (ƒu,brain) were calculated using Eq. 4 ([Kalvass and Maurer, 2002]). […]

[10] = male, rat, in vivo, po, 1 mg/kg; for Plasma concentration: SD
Description: as §3, §4, §5

[11] = Pilot enzyme kinetic study in liver microsomes; format: in vitro ADME
Description: Since identification of F a, F g and F h is of importance to mechanistic understanding the systemic exposure, the related efficacy, and the potent drug-drug interactions, a number of in vivo and in vitro models have been developed to elucidate F a, F g and F h. As for in vitro methods, liver microsomes, S9 or hepatocytes are all well accepted for the generation of hepatic clearance and F h via in vitro-in vivo extrapolation (IVIVE) ([Houston and Carlile, 1998]). Furthermore, functionally mature enterocytes mainly express CYPs and UGTs. Among UGT isoforms, UGT1A8 and UGT1A10 show gut-specific expression patterns ([Kaminsky and Zhang, 2003]; [Court et al., 2012]). However, the achievement of intestinal clearance and (F g) from intestinal microsomes is limited by a lack of consensus on the appropriate scaling factors and a low availability of high-quality tissue. In the present study, in vitro metabolic stability of YL-IPA08 was performed in liver microsomes and intestinal microsomes of rat and human in the presence of NADPH and UDPGA to identify the metabolizing enzyme, organ, and species difference. […] UGT is not involved in the depletion of YL-IPA08. Although the CYP-mediated elimination in HIM and RIM were also observed, with great difference of enzyme expression level between liver and gut, the contribution of intestinal metabolism to the oral bioavailability is hard to define. […]

CCN(Cc1ccccn1)C(=O)Cc1c(-c2ccc(Cl)c(Cl)c2)nc2cc(C)ccn12 [YL-IPA08]
percent of remaining [1]: 100.00% | unbound concentration in rat brain ([2]; estimated based on K p,uu): 0.0065 ng/mL | unbound concentration in brain ([2]; rats, after 1 mg/kg oral dosing, estimated from plasma concentrations and K p,uu): 6.5 pg/g | Papp A→B at 120 min, 10 μM [3]: 3.99 ± 1.46 ×10⁻⁶ cm/s | Papp B→A at 120 min, 10 μM [3]: 2.63 ± 0.43 ×10⁻⁶ cm/s | efflux ratio at 120 min, 10 μM [3]: 0.66 | permeability across Caco-2 cells (in words) ([4]; Caco-2): high permeability | Concentration, DOB ([4]; Caco-2, basolateral donor at time 0): 8883 ± 436 nM | Concentration, DOA ([4]; human, Caco-2, 0 min, 10 µM): 8350 ± 173 nM | Concentration, A-B-B-60 min ([4]; human, Caco-2, 60 min, 10 µM): 13 ± 4 nM | Concentration, B-A-A-60 min ([4]; human, Caco-2, 60 min, 10 µM): 28 ± 8 nM | Concentration, A-B-B-90min ([4]; human, Caco-2, 90 min, 10 µM): 36 ± 25 nM | Concentration, B-A-A-90min ([4]; human, Caco-2, 90 min, 10 µM): 68 ± 27 nM | Concentration, A-B-A-120 min ([4]; human, Caco-2, 120 min, 10 µM): 1755 ± 135 nM | Concentration, A-B-B-120 min ([4]; human, Caco-2, 120 min, 10 µM): 50 ± 17 nM | Concentration, B-A-A-120 min ([4]; human, Caco-2, 120 min, 10 µM): 105 ± 14 nM | Concentration, B-A-B-120 min ([4]; human, Caco-2, 120 min, 10 µM): 2598 ± 360 nM | P appA-B ([4]; human, Caco-2, 120 min, 10 µM): 3.99 × 10^–6 cm/s | P appB-A ([4]; human, Caco-2, 120 min, 10 µM): 2.63 × 10^–6 cm/s | concentration at 0.5 h ([5]; SD, Plasma concentration): 77 ± 22.7 ng/mL | concentration at 1 h ([5]; SD, Plasma concentration): 75.5 ± 26.7 ng/mL | concentration at 2 h ([5]; SD, Plasma concentration): 78.3 ± 38.3 ng/mL | concentration at 4 h ([5]; SD, Plasma concentration): 34.1 ± 13.6 ng/mL | concentration at 6 h ([5]; SD, Plasma concentration): 11.7 ± 3.9 ng/mL | concentration at 8 h ([5]; SD, Plasma concentration): 5.23 ± 1.47 ng/mL | concentration at 12 h ([5]; SD, Plasma concentration): 1.96 ± 0.66 ng/mL | AUC ([5]; Sprague-Dawley (SD), AUC): 441 ± 93 ng·h/mL | microsomal CLint at 1 μM [6]: 200 ± 30 µL/min/mg | aqueous solubility (in words) [7]: high aqueous solubility | BCS class ([7]; from high aqueous solubility and high permeability): BCS class I | blood plasma ratio at 1 h, 1 µM [8]: 1.12 ± 0.08 | fraction unbound at 4 h, 1 µM [9]: 0.447 | Plasma concentration ([10]; 0.5 h): 111.40 ± 22.00 ng/mL | Plasma concentration ([10]; 1 h): 101.93 ± 40.76 ng/mL | Plasma concentration ([10]; 2 h): 91.33 ± 38.19 ng/mL | Plasma concentration ([10]; 4 h): 41.78 ± 20.79 ng/mL | Plasma concentration ([10]; 6 h): 12.85 ± 4.33 ng/mL | Plasma concentration ([10]; 8 h): 5.62 ± 1.64 ng/mL | Plasma concentration ([10]; 12 h): 1.98 ± 0.88 ng/mL | F a F g ([10]; Sprague-Dawley (SD)): 22% | K m [11]: 1 to 3 µM
